Laboratory results: patent US6069167A, “Use of antioxidant agents to treat cholestatic liver disease” (priority 1997, dated 2000)
Like-named read-outs stand apart in the source and are kept apart here.

Key:
hepatic mitochondria = assay: Lipid-conjugated dienes of hepatic mitochondria (lipid peroxidation); type: in vivo, male Sprague-Dawley rats; settings: for Lipid-conjugated dienes: 4 h
Experimental: Hepatic Mitochondria Isolation
Mitochondria were isolated from 10 grams of fresh liver from individual rats by a modification of a previously described method^27. Briefly, the liver was gently homogenized in a loose-fitting Potter-Elvehjm homogenizer in buffer containing 225 mM mannitol, 70 mM sucrose, 3 mM KH2 PO4, 2mM EDTA, 0.1% BSA, 5 mM MgCl2 (pH 7.0), filtered through cheesecloth and centrifuged at 400g×10 minutes. The supernatant was centrifuged at 10,000g for 10 minutes. The supernatant was aspirated and the pellet resuspended and centrifuged at 10,000g for 10 minutes. The resulting mitochondrial pellet was resuspended in 15 ml of buffer, divided into three tubes and added to digitonin (Sigma Chemical Company, St Louis, Mo., 0.29 mg for each gram of original liver) on wet ice×20 minutes, in order to minimize any contamination by lysosomes^28. The resulting mitochondrial preparation was washed two times in the original buffer and centrifuged at 10,000g for 10 minutes. Samples of the pellet were taken for enzyme marker analysis. Two more washes were then performed using a buffer containing 50 mM MOPS/100 mM KCI, yielding the final mitochondrial pellet.
Fresh mitochondria were analyzed for lipid peroxidation as an index of oxidant damage by the lipid-conjugated diene method of Recknagel and Ghoshal^35 with the modification of Bacon et al^36. Briefly, lipids were extracted from mitochondria pellets with chloroform and methanol (2:1, vol/vol), and the lipid in chloroform was dried under a stream of oxygen-free nitrogen^27. The dried lipid was redissolved in 1.5 ml of spectrophotometric grade cyclohexane. Absorbance from 220 to 275 nm was recorded against a cyclohexane blank on a Lambda 2 UV/is Spectrometer (Perkin-Elmer Corp., Norwalk, Conn.). Lipid concentration was approximately 0.5 mg/mi of cyclohexane. After the UV measurements, a 250 μl aliquot from each sample was analyzed for total lipid content by the method of Chiang et al.^37, and absorbance measurements were normalized to a denominator of 1.0 mg lipid per ml of cyclohexane. Lipid peroxidation was estimated by calculating the difference in absorption at 233 nm (the peak absorbance for conjugated dienes) between each rat and the mean of the values from control rats.
Because serum AST and ALT concentrations peaked at 4 hours, further evaluation of liver injury was performed at that time point Total concentrations (conjugated+free bile acids) of individual bile acids were measured in serum obtained at 4 hours by gas chromatography-mass spectroscopy (GC-MS), as previously described^30. Briefly, after serum samples were extracted with the addition of the internal standard 7-alpha, 12-alpha, dihydroxy-5 beta cholanic acid, trimethylsilyl esterification was performed. Individual bile acids were then quantified by GC or GC-MS using a Hewlett-Packard 5790 flame ionization detector equipped with a 30 meter DB-1 capillary column with internal diameter of 0.25 mm and a film thickness of 0.25 micrometers (J & W Scientific, Folsom, Calif.). For GC-MS measurements, a Hewlett-Packard 5970-A mass selective detector operating in selective ion monitoring mode was used. Results were expressed as μmol/L for each individual bile acid.
Rats were divided into two treatment groups. One group was pretreated with parenteral Vitamin E (all-rac-alpha tocopherol, Ephynal, Hoffmann-LaRoche,Nutley, N.J.). The other group was not pretreated. […]

in vivo = assay: in vivo; set-up: species or system male Sprague-Dawley rats; settings: rat
Experimental: Rats were divided into two treatment groups. One group was pretreated with parenteral Vitamin E (all-rac-alpha tocopherol, […], Hoffmann-LaRoche,Nutley, N.J.). The other group was not pretreated. These rats then received either vehicle or TCDC (10 μmol/[…]) by tail vein injection (as described in Example 1). […] All i.p. injections were administered under light methoxyflurane anesthesia. Following the vitamin E or saline injections, rats were randomly assigned to receive a tail vein bolus injection of either TCDC or vehicle. Rats were sacrificed four hours later and serum was analyzed for AST, ALT, total bilirubin and alkaline phosphatase. […] The serum alpha tocopherol:total lipids ratio (mg/gm) was calculated as an additional index of vitamin E status^41. The liver was rapidly removed at sacrifice, the hepatic mitochondria were isolated as set forth above and analyzed for lipid-conjugated dienes as described above. A specimen of liver was also immediately frozen, protected from light and stored at -70° C. and subsequently analyzed for alpha tocopherol and reduced ubiquinol-9 by HPLC with electrochemical detection^42. The results were expressed as nmol alpha tocopherol or nmol reduced ubiquinol-9 per gram wet weight of liver.

TCDC hepatic toxicity = type: in vivo, male Sprague-Dawley rats
Text: Young adult male Sprague-Dawley rats (150-180 gram weight) purchased from Sasco, Inc. (Omaha, Nebr.) were fed Purina Lab Chow (Ralston Purina Co., Chicago, Ill.) ad libitum for 2-3 weeks and housed in polyethylene cages with stainless steel tops on a 12-hour light-dark cycle. All rats received humane care in compliance with the guidelines of the Animal Use in Research Committee of the University of Colorado Health Sciences Center. […] TCDC is a conjugate of the bile acid most implicated in cholestatic liver injury9,11,12. TCDC was solubilized in 5% dextrose, 10% BSA, and 0.45% normal saline. TCDC was administered while rats were under light methoxyflurane anesthesia as an intravenous bolus of the desired dose in 1 to 2 minutes through the tail vein. TCDC dosing was performed between 7 and 9 am. […] Rats were divided into two treatment groups. One group was pretreated with parenteral Vitamin E (all-rac-alpha tocopherol, […], Hoffmann-LaRoche,Nutley, N.J.). The other group was not pretreated. These rats then received either vehicle or TCDC (10 μmol/[…]) by tail vein injection (as described in Example 1). […] All i.p. injections were administered under light methoxyflurane anesthesia. Following the vitamin E or saline injections, rats were randomly assigned to receive a tail vein bolus injection of either TCDC or vehicle. Rats were sacrificed four hours later and serum was analyzed for AST, ALT, total bilirubin and alkaline phosphatase. […] The serum alpha tocopherol:total lipids ratio (mg/gm) was calculated as an additional index of vitamin E status^41.

cholestatic disorders = settings: cited from earlier work
[1] = parenteral vitamin E pretreatment, rats receiving TCDC

Row | Hepatic alpha tocopherol concentrations, change (in vivo) | Serum vitamin E concentrations, change (in vivo) | Serum vitamin E:total lipid ratios, change (in vivo) | Serum alpha tocopherol (in vivo; 4 h) | concentration at 4 h (in vivo; Serum alpha tocopherol) | SMILES | Lipid-conjugated dienes (hepatic mitochondria; Vitamin E/TCDC, n = 12) | Lipid-conjugated dienes (hepatic mitochondria; Vitamin E/Vehicle, n = 7) | Mitochondrial lipid-conjugated dienes, change (hepatic mitochondria; vitamin E pretreatment, i.v. TCDC group) | ALT (TCDC hepatic toxicity; Vitamin E/TCDC, n = 12, 4 h) | AST (TCDC hepatic toxicity; Vitamin E/TCDC, n = 12, 4 h) | Bilirubin (TCDC hepatic toxicity; Vitamin E/TCDC, n = 12, 4 h) | Decrease in serum ALT (TCDC hepatic toxicity; [1]) | Decrease in serum AST (TCDC hepatic toxicity; [1]) | ALT (TCDC hepatic toxicity; rat, in vivo) | AST (TCDC hepatic toxicity; rat, in vivo) | Bilirubin (TCDC hepatic toxicity; rat, in vivo) | Hepatic injury and mitochondrial lipid peroxidation, overall result (TCDC hepatic toxicity; vitamin E pretreatment, TCDC) | Hepatoprotective and choleretic effects (cholestatic disorders)
1 | significant increases | significant increases | significant increases | 13.2 ± 0.7 µg/mL | 9900 ± 700 ng/mL | Cc1c(C)c2c(c(C)c1O)CCC(C)(CCCC(C)CCCC(C)CCCC(C)C)O2 (racemic) [Vitamin E, all-rac-alpha tocopherol] | 0.13 ± 0.01 delta abs. 233 nm/mg lipid | -0.03 ± 0.02 delta abs. 233 nm/mg lipid | significant reduction | 325 ± 78 IU/L | 870 ± 278 IU/L | 0.2 ± 0.02 mg/dL | approximately 70% | approximately 70% | 61 ± 5 IU/L | 81 ± 2 IU/L | 0.2 ± 0.02 mg/dL | attenuated both the hepatic injury and the severity of mitochondrial lipid peroxidation | –
2 | – | – | – | – | – | C[C@H](CCC(=O)O)[C@H]1CC[C@H]2[C@@H]3[C@@H](O)C[C@@H]4C[C@H](O)CC[C@]4(C)[C@H]3CC[C@]12C [ursodeoxycholic acid] | – | – | – | – | – | – | – | – | – | – | – | – | hepatoprotective as well as choleretic effects
